Results taken from patent US8741834B2, “Dipeptoid prodrugs and the use thereof” (Bayer Intellectual Property GmbH, priority 2008, dated 2014).
Counter-ions that a name gives are not always drawn.

Experiments:
[1] = Oral pharmacokinetics in Wistar rats; assay type: in vivo; settings: after oral administration
Method: (§1) On the day before administration of the substance, a catheter for obtaining blood is implanted in the jugular vein of the experimental animals (male Wistar rats, body weight 200-250 g) under Isofluran® anesthesia.
(§2) On the day of the experiment, a defined dose of the test substance is administered as solution into the stomach by gavage. Blood samples (8-12 time points) are taken through the catheter sequentially over the course of 24 h after administration of the substance. Plasma is obtained by centrifuging the samples in heparinized tubes. Acetonitrile is added to a defined plasma volume per time point to precipitate proteins. After centrifugation, test substance and, where appropriate, known cleavage products of the test substance in the supernatant are determined quantitatively using a suitable LC/MS-MS method.
The measured plasma concentrations are used to calculate pharmacokinetic parameters of the test substance and of the active ingredient compound (A) liberated therefrom, such as AUC, Cmax, T1/2 (half-life).

[2] = Determination of the solubility in 5% strength aqueous dextrose solution; assay type: physicochemical; settings: saline or isotonic, thermodynamic from solid, room temperature
Method: The test substance is suspended in 5% strength aqueous dextrose solution. This suspension is shaken at room temperature for 24 h. After ultracentrifugation at 224 000 g for 30 min, the supernatant is diluted with DMSO and analysed by HPLC. A two-point calibration plot of the test compound in DMSO is used for quantification.
Agilent 1100 with DAD (G1315A), quat. Pump (G1311A), autosampler CTC HTS PAL, degasser (G1322A) and column thermostat (G1316A); column: Phenomenex Gemini C18, 5 μm, 50 mm×2 mm; temperature: 40° C.; eluent A: water/phosphoric acid pH 2, eluent B: acetonitrile; flow rate: 0.7 ml/min; gradient: 0-0.5 min 85% A, 15% B; ramp 0.5-3 min 10% A, 90% B; 3-3.5 min 10% A, 90% B; ramp 3.5-4 min 85% A, 15% B; 4-5 min 85% A, 15% B.
Agilent 1100 with DAD (G1315A), quat. pump (G1311A), autosampler CTC HTS PAL, degasser (G1322A) and column thermostat (G1316A); column: VDSoptilab Kromasil 100 C18, 3.5 μm, 60 mm×2.1 mm; temperature: 30° C.; eluent A: water+5 ml of perchloric acid/liter, eluent B: acetonitrile; flow rate: 0.75 ml/min; gradient: 0-0.5 min 98% A, 2% B; ramp 0.5-4.5 min 10% A, 90% B; 4.5-6 min 10% A, 90% B; ramp 6.5-6.7 min 98% A, 2% B; 6.7-7.5 min 98% A, 2% B.

[3] = Stability in buffer at various pH values; assay type: physicochemical
Method: 0.3 mg of the test substance is weighed into a 2 ml HPLC vial and 0.5 ml of acetonitrile or acetonitrile/DMSO (9:1) is added. The substance is dissolved by putting the sample vessel in an ultrasonic bath for about 10 seconds. Then 0.5 ml of the respective buffer solution is added, and the sample is again treated in the ultrasonic bath.
pH 2: 0.03 mol of citric acid, 0.061 mol of sodium chloride and 0.0082 mol of hydrochoric acid ad 1 liter of water;
pH 4: 1 liter of Millipore water is adjusted to pH 4.0 with 1 N hydrochloric acid;
pH 5: 0.096 mol of citric acid and 0.2 mol of sodium hydroxide ad 1 liter of water;
pH 6: 0.06 mol of citric acid and 0.16 mol of sodium hydroxide ad 1 liter of water;
pH 7.4: 90.0 g of sodium chloride, 13.61 g of potassium dihydrogen phosphate and 83.35 g of 1 N sodium hydroxide solution are made up to 1 liter with water; this solution is then further diluted 1:10 with Millipore water.
pH 8: 0.013 mol of borax and 0.021 mol of hydrochloric acid ad 1 liter of water.
5 μl portions of the test solution are analyzed by HPLC for their content of unchanged test substance, and of active substance (A) formed, every hour over a period of 24 hours at 37° C. The percentage areas of the appropriate peaks are used for quantification.
The ratios of the peak areas (F) at the respective time points in relation to the peak areas at the starting time are shown in Table 2 for representative exemplary embodiments: […]

[4] = test system: spontaneously hypertensive (SH rats); test: Blood pressure and heart rate measurements on awake rats; assay type: in vivo, rat; settings: per oral administration of 3 mg/kg
Method: Awake rats which are spontaneously hypertensive (SH rats) and which carry an internal transmitter capable of continual measurement both of blood pressure and also heart rate (telemetric capture of hemodynamic parameters) are administered test substances orally in various doses. Subsequently, blood pressure and heart rate, and their changes, are recorded over 24 hours.

[5] = i.v. pharmacokinetics in Wistar rats; assay type: in vivo; settings: after i.v. administration
Method: as §1
as §2, with “tail vein using a Hamilton® glass syringe (bolus administration, duration of administration <10 s).” for “stomach by gavage.”
The measured plasma concentrations are used to calculate pharmacokinetic parameters of the test substance and of the active ingredient compound (A) liberated therefrom, such as AUC, Cmax, T1/2 (half-life) and CL (clearance).**

SMILES	detectability of the test substance in plasma [1]	solubility thermodynamic at 24 h [2]	% test substance after 4 h [F(t = 4 h) × 100/F(t = 0 h)] ([3]; pH 4, 37° C.)	% test substance after 24 h [F(t = 24 h) × 100/F(t = 0 h)] ([3]; pH 4, 37° C.)	% test substance after 4 h [F(t = 4 h) × 100/F(t = 0 h)] ([3]; pH 7.4, 37° C.)	% test substance after 24 h [F(t = 24 h) × 100/F(t = 0 h)] ([3]; pH 7.4, 37° C.)	% test substance after 4 h [F(t = 4 h) × 100/F(t = 0 h)] ([3]; pH 5, 37° C.)	% test substance after 24 h [F(t = 24 h) × 100/F(t = 0 h)] ([3]; pH 5, 37° C.)	solubility at 24 h ([2]; 5% aqueous dextrose solution)	Heart rate reduction (maximum lowering of heart rate) [4]	detectability of the test substance in plasma [5]	% test substance after 4 h [F(t = 4 h) × 100/F(t = 0 h)] ([3]; pH 6, 37° C.)	% test substance after 24 h [F(t = 24 h) × 100/F(t = 0 h)] ([3]; pH 6, 37° C.)
CC[C@H](C)[C@H](N)C(=O)N[C@@H](C)C(=O)OC[C@H](COc1ccc(-c2c(C#N)c(N)nc(SCc3coc(-c4ccc(Cl)cc4)n3)c2C#N)cc1)OC(=O)[C@H](C)NC(=O)[C@@H](N)[C@@H](C)CC [Example 2, (2S)-3-{4-[2-Amino-6-({[2-(4-chlorophenyl)-1,3-oxazol-4-yl]methyl}sulfanyl)-3,5-dicyanopyridin-4-yl]phenoxy}propane-1,2-diyl (2S,2′S)-bis(2-{[(2S,3S)-2-amino-3-methylpentanoyl]amino}propanoate)dihydrochloride]	no longer detectable in plasma even at the first measurement point	670 µg/mL	100%	100%	100%	68%	–	–	–	–	–	–	–
C[C@H](NC(=O)CN)C(=O)OC[C@H](COc1ccc(-c2c(C#N)c(N)nc(SCc3coc(-c4ccc(Cl)cc4)n3)c2C#N)cc1)OC(=O)[C@H](C)NC(=O)CN [Example 7, (2S)-3-{4-[2-Amino-6-({[2-(4-chlorophenyl)-1,3-oxazol-4-yl]methyl}sulfanyl)-3,5-dicyanopyridin-4-yl]phenoxy}propane-1,2-diyl (2S,2′S)-bis{2-[(aminoacetyl)amino]propanoate}dihydrochloride]	no longer detectable in plasma even at the first measurement point	–	100%	100%	0%	0%	98%	83%	–	–	–	–	–
C[C@H](NC(=O)[C@@H]1CCCN1)C(=O)OC[C@H](COc1ccc(-c2c(C#N)c(N)nc(SCc3coc(-c4ccc(Cl)cc4)n3)c2C#N)cc1)OC(=O)[C@H](C)NC(=O)[C@@H]1CCCN1 [Example 8, (2S)-3-{4-[2-Amino-6-({[2-(4-chlorophenyl)-1,3-oxazol-4-yl]methyl}sulfanyl)-3,5-dicyanopyridin-4-yl]phenoxy}propane-1,2-diyl (2S,2′S)-bis(2-{[(2S)-pyrrolidin-2-ylcarbonyl]amino}propanoate)bis(trifluoroacetic acid) salt]	no longer detectable in plasma even at the first measurement point	–	100%	100%	82%	34%	–	–	–	–	–	–	–
N#Cc1c(N)nc(SCc2coc(-c3ccc(Cl)cc3)n2)c(C#N)c1-c1ccc(OC[C@H](O)CO)cc1 [Example 8A, 2-Amino-6-({[2-(4-chlorophenyl)-1,3-oxazol-4-yl]methyl}sulfanyl)-4-(4-{[(2R)-2,3-dihydroxypropyl]oxy}phenyl)pyridine-3,5-dicarbonitrile]	–	–	–	–	–	–	–	–	< 1.2 µg/mL	10%	–	–	–
C[C@H](NC(=O)CCN)C(=O)OC[C@H](COc1ccc(-c2c(C#N)c(N)nc(SCc3coc(-c4ccc(Cl)cc4)n3)c2C#N)cc1)OC(=O)[C@H](C)NC(=O)CCN [Example 32, (2S)-3-{4-[2-Amino-6-({[2-(4-chlorophenyl)-1,3-oxazol-4-yl]methyl}sulfanyl)-3,5-dicyanopyridin-4-yl]phenoxy}propane-1,2-diyl (2S,2′S)-bis{2-[(3-aminopropanoyl)amino]propanoate}dihydrochloride]	–	–	100%	100%	96%	81%	100%	100%	–	10%	no longer detectable in plasma even at the first measurement point	99%	98%
C[C@H](N)C(=O)N[C@@H](C)C(=O)OC[C@H](COc1ccc(-c2c(C#N)c(N)nc(SCc3coc(-c4ccc(Cl)cc4)n3)c2C#N)cc1)OC(=O)[C@H](C)NC(=O)[C@H](C)N [Example 33, (2S)-3-{4-[2-Amino-6-({[2-(4-chlorophenyl)-1,3-oxazol-4-yl]methyl}sulfanyl)-3,5-dicyanopyridin-4-yl]phenoxy}propane-1,2-diyl(2S,2′S)-bis(2-{[(2S)-2-aminopropanoyl]amino}propanoate)dihydrochloride]	no longer detectable in plasma even at the first measurement point	620 µg/mL	100%	100%	29%	0%	100%	97%	–	10%	no longer detectable in plasma even at the first measurement point	78%	28%
